Reference: ChEMBL document CHEMBL5726613, “5-(N-fused tricyclic aryl tetrahydroisoquinolin-6-yl) pyridin-3-yl acetic acid derivatives as inhibitors of human immunodeficiency virus replication” (2019)

Assay: Inhibition of HIV Replication: A recombinant NL-RLuc proviral clone was constructed in which a section of the nef gene from NL4-3 was replaced with the Renilla Luciferase gene. This virus is fully infectious and can undergo multiple cycles of replication in cell culture. In addition, the luciferous reporter provides a simple and easy method for quantitating the extent of virus growth and consequently, the antiviral activity of test compounds. The plasmid pNLRLuc contains the proviral NL-Rluc DNA cloned into pUC18 at the PvuII site. The NL-RLuc virus was prepared by transfection of 293T cells with the plasmid pNLRLuc. Transfections were performed using the LipofectAMINE PLUS kit from Invitrogen (Carlsbad, Calif.) according to the manufacturer and the virus generated was titered in MT-2 cells. For susceptibility analyses, the titrated virus was used to infect MT-2 cells in the presence of compound, and after 5 days of incubation, cells were processed and quantitated for virus growth by the amount of expressed luciferase. Assay media was RPMI 1640 supplemented with 10% heat inactivated fetal bovine serum (FBS), 100 units/ml penicillin G/100 units/ml streptomycin, 10 mM HEPES buffer pH 7.55 and 2 mM L-glutamine. The results from at least 2 experiments were used to calculate the EC50 values. Luciferase was quantitated using the Dual Luciferase kit from Promega (Madison, Wis.). Susceptibility of viruses to compounds was determined by incubation in the presence of serial dilutions of the compound. The 50% effective concentration (EC50) was calculated by using the exponential form of the median effect equation where (Fa)=1/[1+(ED50/drug conc.)m] (Johnson Va., Byington R T. Infectivity Assay. In Techniques in HIV Research. ed. Aldovini A, Walker B D. 71-76. New York: Stockton Press. 1990).
Format: cell-based
Settings: HEK-293T

SMILES | EC50
Cc1nc(C)c([C@H](OC(C)(C)C)C(=O)O)c(N2CCC(C)(C)CC2)c1-c1ccc2c(c1)CCN(c1ncnc3c1[nH]c1ccccc13)C2 | 24 nM
CCn1c2ccc(C)cc2c2ncnc(N3CCc4cc(-c5c(C)nc(C)c([C@H](OC(C)(C)C)C(=O)O)c5N5CCC(C)(C)CC5)ccc4C3)c21 | 45 nM
Cc1ccc2c(c1)[nH]c1nc(N3CCc4cc(-c5c(C)nc(C)c([C@H](OC(C)(C)C)C(=O)O)c5N5CCC(C)(C)CC5)ccc4C3)nc(Cl)c12 | 5 nM
Cc1ccc2[nH]c3c(N4CCc5cc(-c6c(C)nc(C)c([C@H](OC(C)(C)C)C(=O)O)c6N6CCC(C)(C)CC6)ccc5C4)ncnc3c2c1 | 13 nM
Cc1nc(C)c([C@H](OC(C)(C)C)C(=O)O)c(N2CCC(C)(C)CC2)c1-c1ccc2c(c1)CCN(c1ncnc3[nH]c4ccccc4c13)C2 | 5 nM
Cc1nc(C)c([C@H](OC(C)(C)C)C(=O)O)c(N2CCC(C)(C)CC2)c1-c1ccc2c(c1)CCN(c1ncnc3c1oc1ncccc13)C2 | 1 nM
Cc1nc(C)c([C@H](OC(C)(C)C)C(=O)O)c(N2CCC(C)(C)CC2)c1-c1ccc2c(c1)CCN(c1ncnc3c1oc1ccc(F)cc13)C2 | 2 nM
Cc1nc(C)c([C@H](OC(C)(C)C)C(=O)O)c(N2CCC(C)(C)CC2)c1-c1ccc2c(c1)CCN(c1ccc3ccc4cccnc4c3n1)C2 | 3 nM
Cc1nc(C)c([C@H](OC(C)(C)C)C(=O)O)c(N2CCC(C)(C)CC2)c1-c1ccc2c(c1)CCN(c1nc3ccccc3c3ccccc13)C2 | 31 nM
Cc1nc(C)c([C@H](OC(C)(C)C)C(=O)O)c(N2CCC(C)(C)CC2)c1-c1ccc2c(c1)CCN(c1ncnc3c1oc1ccccc13)C2 | 1 nM
Cc1nc(C)c([C@H](OC(C)(C)C)C(=O)O)c(N2CCC(C)(C)CC2)c1-c1ccc2c(c1)CCN(c1ncnc3c1oc1cccc(F)c13)C2 | 3 nM
Cc1nc(C)c([C@H](OC(C)(C)C)C(=O)O)c(N2CCC(C)(C)CC2)c1-c1ccc2c(c1)CCN(c1ncnc3c1sc1ccccc13)C2 | 4 nM
CCOc1cccc2oc3c(N4CCc5cc(-c6c(C)nc(C)c([C@H](OC(C)(C)C)C(=O)O)c6N6CCC(C)(C)CC6)ccc5C4)ncnc3c12 | 1 nM
Cc1nc(C)c([C@H](OC(C)(C)C)C(=O)O)c(N2CCC(C)(C)CC2)c1-c1ccc2c(c1)CCN(c1ncnc3sc4ccccc4c13)C2 | 5 nM
